In patent publication US20120094295A1, “NEURODEGENERATIVE DISEASE DIAGNOSTIC COMPOSITIONS AND METHODS OF USE” (The Johns Hopkins University, priority 2008, published 2012):
Where two headings read alike, the source gives them in different places. One block for each compound: values may come before it.

Assays:
EAAT2/GLT-1 = EAAT2/GLT-1 gene expression in nasal olfactory epithelium; conditions: in vivo
[1] = test system: glutamate transporter EAAT2/GLT-1; assay: Glutamate transporter function in vitro and in vivo
EAAT2 promoter = EAAT2 promoter luciferase reporter gene assay in immortalized astrocytes; format: cell-based, human; conditions: luciferase reporter driven by 2.5 kB EAAT2 promoter fragment, 72 hours
Procedure: (§1) FIG. 3A is a graph showing EAAT2 promoter activation. EAAT2 promoter activation was examined by measuring luciferase activity using a reporter gene construct driven by a 2.5 kB promoter fragment of EAAT2 (Rothstein et al., Nature. 2005 Jan. 6; 433(7021):73-7). […] Glutamate-uptake was measured using standard techniques. […] Cells were then exposed to an oxygen-glucose-free environment for 1.5 hours (Goldberg et al). After the oxygen-glucose deprivation, cells were washed back into normal artificial cerebral spinal fluid (ACSF) solution and maintained for another 23 hours at 37 C, 5% CO2. Neuronal cell death was determined by measuring […] (LDH) release. Cells treated with MK-801, 6-cyano-7-nitroquinoxaline-2,3-dione), (CNQX) and nimodipine (MCN) were used as a positive control for neuroprotective activity.

[2] = test system: primary mouse cultures of neurons and astrocytes; assay: Oxygen-glucose deprivation (OGD) assay, neuronal cell death by LDH release; format: cell-based; conditions: 72 hours treatment, then oxygen-glucose deprivation 1.5 hours
Procedure: as §1

[3] = human, in vivo
GFAP mRNA = assay: qPCR of nasal biopsy samples before and after drug treatment; format: in vivo, human; conditions: healthy volunteers, 750 or 1500 mg once a day oral, day 14 vs day -1
Procedure: (§2) Nasal biopsies were performed the day before the beginning of drug treatment (day −1) and on day 14. mRNA levels of several genes were quantified by qPCR analysis. Data are presented as fold increases in mRNA levels after drug treatment for each individual patient.
(§3) Nasal biopsies were taken on day −1 (before drug treatment) and day 14. […] In addition to EAAT2, the mRNA levels of the following genes were measured: GFAP (astrocytic expression in CNS), EAAT1 (astrocytic expression in CNS, expressed in precursor neuronal cells in olfactory epithelium), OMP (neuronal expression in olfactory epithelium and CNS), and MCT-4. […] The intra-patient variability was obtained by comparing mRNA levels obtained from the left and right side of the nose of each volunteer. This was important since the drug study was designed to obtain a biopsy from one side of the nose before drug treatment and from the opposite side of the nose after drug treatment. This allowed each person to serve as their own control and provided an opportunity to follow changes in mRNA levels within individuals.
(§4) Human nasal biopsies were performed by otolaryngologists specializing in sinus surgery. […] Local anesthesia was used for the procedure. Local anesthesia was applied to the nasal cavity. Lidocaine liquid 4% (Xylocaine®) and oxymetazoline HCl 0.05% (Afrin®) was sprayed in the nose. Then, if needed, 1% lidocaine with 1/100,000 epinephrine was injected to provide both anesthesia and vasoconstriction.
(§5) The procedure was performed under endoscopic control and used either a small curette or biting forceps for tissue removal. To avoid trauma to the cribriform plate, the biopsies were usually taken from the upper nasal septum. […] The tissue was removed from either the front or the back of the olfactory cleft, and sometimes both. Up to two blocks of tissue (approximately 2 mm each) were collected from each side of the nose. […] Subjects were instructed not to blow their nose and not to perform any strenuous physical activity for 24 hours after the procedure.
(§6) Healthy volunteers underwent a nasal biopsy on day −1 on one side of the nose only. R UX122 was administered in 3 groups (placebo, 750 mg/day, 1500 mg/day) starting day 1 to day 14. Blood samples were taken throughout the trial period to obtain basic pharmacokinetic analyses as well as to monitor for safety and tolerability. […] On day 14, a nasal biopsy was done on the other side of the nose.
(§7) Total RNA was reversed transcribed using Applied Biosystems' high capacity cDNA archive kit. The quantitative real time RT-PCR assay was performed using the iCycler iQ Real-Time Detection System from BioRad. TaqMan Probes, which allow for specific mRNA amplification, were purchased from Applied Biosystems.

OMP mRNA = assay: as above; format: in vivo, human; conditions: healthy volunteers, 750 or 1500 mg once a day oral, day 14 vs day -1
Procedure: as §2, §3, §4, §5, §6, §7

EAAT1 mRNA = assay: as above; format: in vivo, human; conditions: healthy volunteers, 750 or 1500 mg once a day oral, day 14 vs day -1
Procedure: as §2, §3, §4, §5, §6, §7

MCT-4 mRNA = assay: as above; format: in vivo, human; conditions: healthy volunteers, 750 or 1500 mg once a day oral, day 14 vs day -1
Procedure: as §2, §3, §4, §5, §6, §7

EAAT2/GLT-1 mRNA = assay: as above; format: in vivo, human; conditions: healthy volunteers, 750 or 1500 mg once a day oral, day 14 vs day -1
Procedure: as §2, §3, §4, §5, §6, §7

[4] = Safety and tolerability in healthy volunteers; format: in vivo, human; conditions: 750 or 1500 mg once a day oral, 14 days
Procedure: Thirty-four normal volunteers were divided into three groups: placebo (N=6), TAP 750 mg administered orally once a day (N=12) and TAP 1500 mg administered orally once a day (N=12). Nasal biopsies were taken on day −1 (before drug treatment) and day 14. Plasma pharmacokinetics were done on day 1 and 13 and cerebrospinal fluid samples were taken on day 13 to study the levels of TAP in the brain.
R UX122 was administered in 3 groups (placebo, 750 mg/day, 1500 mg/day) starting day 1 to day 14. Blood samples were taken throughout the trial period to obtain basic pharmacokinetic analyses as well as to monitor for safety and tolerability. Every patient underwent a spinal tap to collect CSF on day 13.

GLT-1 mRNA = GLT-1 mRNA in treated wild-type mice; format: in vivo, mouse; conditions: WT mice, 12.5 or 25 mg/kg/day oral, 10 days
Procedure: as §7

glutamate uptake = assay: Glutamate uptake in primary cultures of neurons and astrocytes; format: cell-based; conditions: primary mouse cultures of neurons and astrocytes, 72 hours
Procedure: as §1

[5] = Human plasma pharmacokinetics of thiamphenicol in healthy volunteers; format: in vivo; conditions: for AUC / Cmax / half-life / Tmax: human, plasma, po

SMILES: CO/N=C(\C(=O)N[C@@H]1C(=O)N2C(C(=O)O)=C(CSc3nc(=O)c(=O)[nH]n3C)CS[C@H]12)c1csc(N)n1 [ceftriaxone]
EAAT2/GLT-1 gene expression in nasal olfactory epithelium (EAAT2/GLT-1): increased EAAT2/GLT-1 gene expression in nasal olfactory epithelium
glutamate transporter function [1]: increased transporter function in vitro and in vivo
EAAT2 promoter activation (EAAT2 promoter): activated the transporter on a promoter level

correlation between plasma concentrations and CSF levels [3]: linear correlation
plasma concentrations versus dose ([5]; 750 and 1500 mg/day oral): dose-related plasma concentrations
drug accumulation ([5]; 14 days once daily oral): no drug accumulation
AUC ([5]; 750 mg/day, oral 750 mg/day, Day 1): 42600 ng·h/mL
Cmax ([5]; 750 mg/day, oral 750 mg/day, Day 1, plasma): 6310 ng/mL
half-life ([5]; 750 mg/day, oral 750 mg/day, Day 1, read-out: T ½ (converted)): 4.1 ± 0.8 h
Tmax ([5]; 750 mg/day, oral 750 mg/day, Day 1, read-out: Tmax median(range)): 2 h
AUC ([5]; 750 mg/day, oral 750 mg/day, Day 13): 51100 ng·h/mL
Cmax ([5]; 750 mg/day, oral 750 mg/day, Day 13, plasma): 6550 ng/mL
half-life ([5]; 750 mg/day, oral 750 mg/day, Day 13, read-out: T ½ (converted)): 4.8 ± 0.6 h
Tmax ([5]; 750 mg/day, oral 750 mg/day, Day 13, read-out: Tmax median(range)): 2 h
AUC ([5]; 1500 mg/day, oral 1500 mg/day, Day 1): 88000 ng·h/mL
Cmax ([5]; 1500 mg/day, oral 1500 mg/day, Day 1, plasma): 10700 ng/mL
half-life ([5]; 1500 mg/day, oral 1500 mg/day, Day 1, read-out: T ½ (converted)): 4.2 ± 0.5 h
Tmax ([5]; 1500 mg/day, oral 1500 mg/day, Day 1, read-out: Tmax median(range)): 2.5 h
AUC ([5]; 1500 mg/day, oral 1500 mg/day, Day 13): 96700 ng·h/mL
Cmax ([5]; 1500 mg/day, oral 1500 mg/day, Day 13, plasma): 11000 ng/mL
half-life ([5]; 1500 mg/day, oral 1500 mg/day, Day 13, read-out: T ½ (converted)): 5.7 ± 1 h
Tmax ([5]; 1500 mg/day, oral 1500 mg/day, Day 13, read-out: Tmax median(range)): 2 h
half-life ([5]; 750 and 1500 mg/day oral, read-out: average half life): 4 to 6 h
SMILES: CS(=O)(=O)c1ccc([C@@H](O)[C@@H](CO)NC(=O)C(Cl)Cl)cc1 [TAP, thiamphenicol]
neuroprotection (neuronal cell death, LDH release) [2]: dose-dependent neuroprotection
EAAT2/GLT-1 gene expression in nasal olfactory epithelium (EAAT2/GLT-1): increased EAAT2/GLT-1 gene expression in nasal olfactory epithelium
GFAP mRNA levels in olfactory epithelium after drug treatment (GFAP mRNA): dose-dependent positive trend towards an increase in mRNA levels
GFAP mRNA levels in olfactory epithelium after drug treatment (GFAP mRNA; listed as thiamphenicol): positive trend towards increased gene expression levels
OMP mRNA levels in olfactory epithelium after drug treatment (OMP mRNA): no difference in mRNA levels
OMP mRNA levels in olfactory epithelium after drug treatment (OMP mRNA; listed as thiamphenicol): no change in gene expression levels
EAAT1 mRNA levels in olfactory epithelium after drug treatment (EAAT1 mRNA): no difference in mRNA levels
EAAT1 mRNA levels in olfactory epithelium after drug treatment (EAAT1 mRNA; listed as thiamphenicol): no change in gene expression levels
MCT-4 mRNA levels in olfactory epithelium after drug treatment (MCT-4 mRNA): no difference in mRNA levels
MCT-4 mRNA levels in olfactory epithelium after drug treatment (MCT-4 mRNA; listed as thiamphenicol): no change in gene expression levels
EAAT2/GLT-1 mRNA levels in olfactory epithelium after drug treatment (EAAT2/GLT-1 mRNA): dose-dependent positive trend towards an increase in mRNA levels
EAAT2/GLT-1 mRNA levels in olfactory epithelium after drug treatment (EAAT2/GLT-1 mRNA; listed as thiamphenicol): positive trend towards increased gene expression levels
serious adverse side-effects [4]: no serious adverse side-effects were reported
tolerability [4]: well tolerated at every dose
glutamate transporter function [1]: increased transporter function in vitro and in vivo
GLT-1 mRNA (GLT-1 mRNA): dose-dependently increased
EAAT2 promoter activation (EAAT2 promoter): activated the transporter on a promoter level
glutamate uptake (glutamate uptake): dose-dependently increased glutamate uptake
